In patent US20140303092A1 (CHIMERIX, INC., priority 2011, published 2014):
“And” between values parts separate entries of the source, which are not always exact repeats. Equal values may be shown once.

Test system: CMV
Experiment: Study HDP-CDV-201: prevention or control of CMV infection in R+ HSCT recipients (efficacy)
Format: in vivo, human (adult allogeneic HSCT recipients)
Settings: for Difference (HDP-CDV minus placebo) in rate of CMV DNAemia ≧1,000 copies/mL / Rate of CMV DNAemia ≧1,000 copies/mL during the treatment period: CMV modified strata: positive; for Discontinuation: Emergence of CMV disease / Discontinuation: Initiation of alternate CMV therapy: active treatment period; for Rate of CMV Disease or End of Treatment CMV Infection (≧200 copies/ml): missing=infection; for Rate of CMV DNAemia ≧1000 copies/mL during the treatment period: post hoc; for Developed CMV DNAemia (≧100 copies/mL) during the treatment period: plasma CMV DNA negative at baseline
Procedure: The clinical study of the current invention (HDP-CDV-201) was a 9-11 week randomized, placebo-controlled, double-blind, dose-escalation study (40 mg weekly [QW], 100 mg QW, 200 mg QW, 200 mg twice-weekly [BIW], and 100 mg BIW) of HDP-CDV for the prevention of CMV infection post-HCT. Treatment was initiated at the time of engraftment and continued until Week 13 post-HCT. HDP-CDV, at various doses, was active and well tolerated in the prevention CMV infection or disease.
Clinical Studies of HDP-CDV were performed and described in detail in the following Examples. For example, HDP-CDV-201 is a placebo-controlled, dose-escalating trial in HSCT CMV (R+) recipients, evaluating the ability of HDP-CDV to prevent or control CMV infection was carried out. Five cohorts were established in which participants or subjects received either placebo or the HDP-CDV orally, in doses ranging from 40 mg weekly (QW) to 200 mg twice weekly (BIW). Subjects who were post-HSCT were enrolled at the time of engraftment and randomized to HDP-CDV or placebo (3 to 1 ratio) and received blinded therapy until approximately 100 day post-transplantation. HDP-CDV doses were 40 mg QW, 100 mg QW, 200 mg QW, 200 mg BIW and 100 mg BIW. Escalation to the next dose was decided by the data monitoring committee after review of the safety data from the previous Cohort. Subjects who developed CMV disease or CMV infection requiring pre-emptive therapy with local standard of care were discontinued from blinded therapy and followed for 4 weeks. Subjects who completed treatment with blinded therapy were followed for 8 weeks post-therapy.
The primary endpoint was defined as the incidence of CMV disease at any time during treatment or CMV DNAemia≧200 copies/mL at the end of treatment. All subjects who received at least one dose of drug/placebo and had at least one efficacy evaluation post baseline were included in the primary analysis, regardless of their CMV DNAemia status (negative or positive) at baseline (mITT population). Results for the pooled HDP-CDV Cohorts and for each Cohort separately were analyzed versus that for pooled placebo.
The primary efficacy measure for this study was treatment failure, defined as the occurrence of CMV infection, defined as CMV DNAemia>200 copies/mL at the End of Treatment or diagnosis of CMV disease at any time during the treatment period. For the analysis, the following definitions apply:
For subjects who completed the treatment phase of the study, the End of Treatment was defined as the latest assessment from date of the last dose of study drug and up to 7 days for QW dosing, or the date of the last dose of study drug and up to 4 days for BIW dosing. For subjects who discontinued during the treatment phase of the study, the End of Treatment was defined as the date of the last dose of study drug.
The time to event was defined as the period between FDD and date of first occurrence of the event of interest (inclusive). The events included onset of CMV DNAemia, onset of CMV disease, and discontinuation because of excluded anti-CMV medications. Time to event/onset was derived as (the event/onset date—FDD)+1.
As detailed in the Statistical Analysis Plan, a modified CMV stratum was defined prior to conducting the statistical analysis based upon polymerase chain reaction (PCR) results from the central laboratory. If any positive CMV DNA value in plasma was collected before the first dose of study drug (including Screening, Pre-dose, (combined Screening/Pre-dose), CMV for stratification, and FDD), then the subject was placed into the modified CMV positive (≧100 copies/mL) stratum, otherwise the subject was in the modified CMV negative stratum. […]

[1] = 40 mg QW, CMV modified strata: negative
[2] = 40 mg QW, modified CMV negative stratum
[3] = 40 mg QW, treatment period, CMV DNA negative at baseline
[4] = 40 mg QW, whole study period, CMV DNA negative at baseline
[5] = 100 mg BIW, CMV modified strata: negative
[6] = 100 mg BIW, modified CMV negative stratum
[7] = 100 mg BIW, whole study period, CMV DNA negative at baseline
[8] = 100 mg QW, CMV modified strata: negative
[9] = 100 mg QW, modified CMV negative stratum

## CCCCCCCCCCCCCCCCOCCCOP(=O)(O)COC(CO)Cn1ccc(N)nc1=O (stereo not drawn) [HDP-CDV]
40 mg QW
  anti-CMV activity (in words): inactive
  Difference (HDP-CDV minus placebo) in rate of CMV DNAemia ≧1,000 copies/mL: 2.4%
  Rate of CMV DNAemia ≧1,000 copies/mL during the treatment period: 85.7%
  Discontinuation: Emergence of CMV disease: 3 Subject n (%) and 3 (12.0%) Subject n (%)
  Discontinuation: Initiation of alternate CMV therapy: 8 (32.0%) Subject n (%)
[1]
  Difference (HDP-CDV minus placebo) in infection rate: 9.1%
  Difference (HDP-CDV minus placebo) in rate of CMV DNAemia ≧1,000 copies/ml: −9.7%
  Rate of CMV DNAemia ≧1,000 copies/ml during the treatment period: 22.2%
  Rate of CMV Disease or End of Treatment CMV Infection: 38.9%
40 mg QW, aGVHD randomization strata: negative
  Rate of CMV Disease or End of Treatment CMV Infection: 52.2%
40 mg QW, aGVHD strata: negative
  Difference (HDP-CDV minus placebo) in infection rate: 20.1%
40 mg QW, mITT
  Difference (HDP-CDV minus placebo) in rate of CMV DNAemia ≧1000 copies/mL: −2.4%
  Difference (HDP-CDV minus placebo) in rate of CMV disease or end of treatment CMV infection: 14.7%
  Subjects Receiving Antiviral Therapy and/or had CMV disease: 11 (44.0%) subjects (%)
  Subjects without a CMV event: 14 (56.0%) subjects (%)
  Time to Antiviral Therapy, Median: 29.0 days
  Rate of CMV Disease or End of Treatment CMV Infection (≧200 copies/ml): 52%
  Rate of CMV DNAemia ≧1000 copies/mL during the treatment period: 40.0%
  Developed CMV DNAemia (≧100 copies/mL) during the treatment period: 10 (52.6%) N(%)
40 mg QW, mITT, censored values not included
  Time to Antiviral Therapy, Mean: 27.1 days
[2]
  Subjects Who Had CMV-related Event (CMV disease, CMV DNAemia ≧1,000 c/mL or initiation of anti-CMV treatment): 5 (27.8%) subjects (%)
  Subjects without a CMV-related event: 13 (72.2%) subjects (%)
[3]
  Median Survival Time to CMV DNAemia (Kaplan-Meier): 51.0 days
  Time to CMV DNAemia (≧100 copies/mL), Median: 14.5 days
40 mg QW, treatment period, CMV DNA negative at baseline, censored values not included
  Time to CMV DNAemia (≧100 copies/mL), Mean: 17.8 days
40 mg QW, whole study period
  Median Survival Time to CMV DNAemia (Kaplan-Meier): 51.0 days
[4]
  Number of Subjects who had CMV DNAemia (≧100 copies/mL) by the end of study: 11
  Time to CMV DNAemia (≧100 copies/mL), Mean: 24.5 days
  Time to CMV DNAemia (≧100 copies/mL), Median: 15.0 days
100 mg BIW (N = 41), CMV modified strata: negative
  % CMV Event Rate, primary: CMV DNAemia >200 copies/mL at end of treatment OR CMV disease during treatment: 2 (4.9%) subjects (%)
100 mg BIW (N = 46), aGVHD strata: negative
  % CMV Event Rate, primary: CMV DNAemia >200 copies/mL at end of treatment OR CMV disease during treatment: 4 (8.7%) subjects (%)
100 mg BIW (N = 50), mITT
  % CMV Event Rate, primary: CMV DNAemia >200 copies/mL at end of treatment OR CMV disease during treatment: 5 (10.0)%
100 mg BIW, CMV modified positive stratum (3 of 9)
  CMV events (disease at any time or >200 copies at end of treatment): 33%
[5]
  Difference (HDP-CDV minus placebo) in infection rate: −24.9%
  Difference (HDP-CDV minus placebo) in rate of CMV DNAemia ≧1,000 copies/ml: −31.9%
  Rate of CMV DNAemia ≧1,000 copies/ml during the treatment period: 0%
  Rate of CMV Disease or End of Treatment CMV Infection: 4.9% and 5%
100 mg BIW
  Difference (HDP-CDV minus placebo) in rate of CMV DNAemia ≧1,000 copies/mL: −38.9%
  Rate of CMV DNAemia ≧1,000 copies/mL during the treatment period: 44.4%
  Discontinuation: Emergence of CMV disease: 1 Subject n (%) and 1 (2.0%) Subject n (%)
  Discontinuation: Initiation of alternate CMV therapy: 6 (12.0%) Subject n (%)
100 mg BIW, aGVHD randomization strata: negative
  Rate of CMV Disease or End of Treatment CMV Infection: 9% and 8.7%
100 mg BIW, aGVHD strata: negative
  Difference (HDP-CDV minus placebo) in infection rate: −23.4%
100 mg BIW, mITT
  Difference (HDP-CDV minus placebo) in rate of CMV DNAemia ≧1000 copies/mL: −34.4%
  Difference (HDP-CDV minus placebo) in rate of CMV disease or end of treatment CMV infection: −27.3%
  Incidence of CMV disease or initiation of anti-CMV preemptive therapy: 14%
  Subjects Receiving Antiviral Therapy and/or had CMV disease: 7 (14.0%) subjects (%)
  Subjects without a CMV event: 43 (86.0%) subjects (%)
  Time to Antiviral Therapy, Median: 23.0 days
  Rate of CMV Disease or End of Treatment CMV Infection (≧200 copies/ml): 10%
  Rate of CMV DNAemia ≧1000 copies/mL during the treatment period: 8%
  Developed CMV DNAemia (≧100 copies/mL) during the treatment period: 10 (23.8.%) N(%) and 10 (23.8%) N(%)
100 mg BIW, mITT, censored values not included
  Time to Antiviral Therapy, Mean: 23.1 days
[6]
  % CMV Event Rate: Incidence of CMV DNAemia >100 copies/mL During Treatment (Fisher analysis, ref 14.3.3.2.1): 9 (22.5%) subjects (%)
  % CMV Event Rate: Incidence of CMV DNAemia ≧1,000 copies/mL at any time during treatment: 0 subjects (%)
  % CMV Event Rate: onset of CMV DNAemia During Whole Study: 14 (33.3%) subjects (%)
  Combined CMV event rate (CMV disease, viremia requiring treatment, viremia ≧1000 copies/mL): 12.2%
  Subjects Who Had CMV-related Event (CMV disease, CMV DNAemia ≧1,000 c/mL or initiation of anti-CMV treatment): 5 (12.2%) subjects (%)
  Subjects without a CMV-related event: 36 (87.8%) subjects (%)
100 mg BIW, treatment period, CMV DNA negative at baseline
  Time to CMV DNAemia (≧100 copies/mL), Median: 20.0 days
100 mg BIW, treatment period, CMV DNA negative at baseline, censored values not included
  Time to CMV DNAemia (≧100 copies/mL), Mean: 28.8 days
[7]
  Number of Subjects who had CMV DNAemia (≧100 copies/mL) by the end of study: 14
  Time to CMV DNAemia (≧100 copies/mL), Mean: 42.8 days
  Time to CMV DNAemia (≧100 copies/mL), Median: 32.5 days
100 mg QW
  Incidence of composite endpoint (initiation of anti-CMV therapy or CMV disease or CMV DNAemia >1,000 copies/mL): 21.7%
  Difference (HDP-CDV minus placebo) in rate of CMV DNAemia ≧1,000 copies/mL: 16.7%
  Rate of CMV DNAemia ≧1,000 copies/mL during the treatment period: 100.0%
  Discontinuation: Emergence of CMV disease: 3 Subject n (%) and 3 (11.1%) Subject n (%)
  Discontinuation: Initiation of alternate CMV therapy: 4 (14.8%) Subject n (%)
[8]
  Difference (HDP-CDV minus placebo) in infection rate: −16.7%
  Difference (HDP-CDV minus placebo) in rate of CMV DNAemia ≧1,000 copies/ml: −23.2%
  Rate of CMV DNAemia ≧1,000 copies/ml during the treatment period: 8.7%
  Rate of CMV Disease or End of Treatment CMV Infection: 13.0%
100 mg QW, aGVHD randomization strata: negative
  Rate of CMV Disease or End of Treatment CMV Infection: 24.0%
100 mg QW, aGVHD strata: negative
  Difference (HDP-CDV minus placebo) in infection rate: −8.1%
100 mg QW, mITT
  Difference (HDP-CDV minus placebo) in rate of CMV DNAemia ≧1000 copies/mL: −20.2%
  Difference (HDP-CDV minus placebo) in rate of CMV disease or end of treatment CMV infection: −15.1%
  Subjects Receiving Antiviral Therapy and/or had CMV disease: 7 (25.9%) subjects (%)
  Subjects without a CMV event: 20 (74.1%) subjects (%)
  Time to Antiviral Therapy, Median: 41.0 days
  Rate of CMV Disease or End of Treatment CMV Infection (≧200 copies/ml): 22% and 22.2%
  Rate of CMV DNAemia ≧1000 copies/mL during the treatment period: 22.2%
  Developed CMV DNAemia (≧100 copies/mL) during the treatment period: 5 (21.7%) N(%)
100 mg QW, mITT, censored values not included
  Time to Antiviral Therapy, Mean: 41.9 days
[9]
  % CMV Event Rate: Incidence of CMV DNAemia >100 copies/mL During Treatment (Fisher analysis, ref 14.3.3.2.1): 5 (21.7%) subjects (%)
  % CMV Event Rate: Incidence of CMV DNAemia ≧1,000 copies/mL at any time during treatment: 2 (8.7%) subjects (%)
  % CMV Event Rate: onset of CMV DNAemia During Whole Study: 8 (34.8%) subjects (%)
  Subjects Who Had CMV-related Event (CMV disease, CMV DNAemia ≧1,000 c/mL or initiation of anti-CMV treatment): 5 (21.7%) subjects (%)
  Subjects without a CMV-related event: 18 (78.3%) subjects (%)
100 mg QW, treatment period, CMV DNA negative at baseline
  Time to CMV DNAemia (≧100 copies/mL), Median: 30.0 days
